biological target: T1, human complement factor D (Homo sapiens, UniProt P00746); test: In vitro enzyme inhibition (Z-Lys-SBzl/DTNB absorbance assay); assay type: biochemical; settings: Complement Factor D (R&D Systems), substrate Z-Lys-SBzl, A405 nm; read-out: CFD IC50
T1 construct: purchased R&D Systems 1824-SE
In short: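 Factor D (6.25 ng/μL before addition) preincubated 5 min RT with compound (8 points from 50 μM, 6-fold, 0.5% DMSO final) in 50 mM Tris/HCl pH 7.5, 1 M NaCl, then Z-Lys-SBzl/DTNB added (200 μM each before addition). A405 read kinetically every 30 s for 60 min; IC50 from variable-slope fit, controls with and without enzyme.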

T1 sequence (P00746 26-253): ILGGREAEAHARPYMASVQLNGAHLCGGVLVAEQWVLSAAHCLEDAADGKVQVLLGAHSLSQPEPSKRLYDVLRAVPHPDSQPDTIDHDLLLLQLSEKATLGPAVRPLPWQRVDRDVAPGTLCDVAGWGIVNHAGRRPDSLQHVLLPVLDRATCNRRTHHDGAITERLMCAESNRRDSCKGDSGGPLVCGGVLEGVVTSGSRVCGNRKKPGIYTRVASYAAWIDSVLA

IC50 [µM]	Compound
> 10	CC(C)=C(F)C(C)NC(=O)[C@@H]1[C@H]2CC[C@H](C2)N1C(=O)Cn1nc(C(N)=O)c2ccccc21 (stereo partly drawn) [Example 135, 1-(2-((1R,3S,4S)-3-((3-fluoro-4-methylpent-3-en-2-yl)carbamoyl)-2-azabicyclo[2.2.1]heptan-2-yl)-2-oxoethyl)-1H-indazole-3-carboxamide]
1 to 10	COC(=O)C(NC(=O)[C@@H]1[C@H]2CC[C@H](C2)N1C(=O)Cn1nc(C(N)=O)c2ccccc21)c1cccc(Cl)c1F (stereo partly drawn) [Example 136, methyl 2-((1R,3S,4S)-2-(2-(3-carbamoyl-1H-indazol-1-yl)acetyl)-2-azabicyclo[2.2.1]heptane-3-carboxamido)-2-(3-chloro-2-fluorophenyl)acetate]
1 to 10	NC(=O)c1nn(CC(=O)N2[C@@H]3CC[C@@H](C3)[C@H]2C(=O)NC(C(=O)O)c2cccc(Cl)c2F)c2ccccc12 (stereo partly drawn) [Example 137, 2-((1R,3S,4S)-2-(2-(3-carbamoyl-1H-indazol-1-yl)acetyl)-2-azabicyclo[2.2.1]heptane-3-carboxamido)-2-(3-chloro-2-fluorophenyl)acetic acid]
1 to 10	NC(=O)c1nn(CC(=O)N2[C@@H]3CC[C@@H](C3)[C@H]2C(=O)NC(CO)c2cccc(Cl)c2F)c2ccccc12 (stereo partly drawn) [Example 138, 1-(2-((1R,3S,4S)-3-((1-(3-chloro-2-fluorophenyl)-2-hydroxyethyl)carbamoyl)-2-azabicyclo[2.2.1]heptan-2-yl)-2-oxoethyl)-1H-indazole-3-carboxamide]
> 10	NCC(NC(=O)[C@@H]1[C@H]2CC[C@H](C2)N1C(=O)Cn1nc(C(N)=O)c2ccccc21)c1cccc(Cl)c1F (stereo partly drawn) [Example 140, 1-(2-((1R,3S,4S)-3-((2-amino-1-(3-chloro-2-fluorophenyl)ethyl)carbamoyl)-2-azabicyclo[2.2.1]heptan-2-yl)-2-oxoethyl)-1H-indazole-3-carboxamide]
0.1 to 1	N#CC(NC(=O)[C@@H]1[C@H]2CC[C@H](C2)N1C(=O)Cn1nc(C(N)=O)c2ccccc21)c1cccc(Cl)c1F (stereo partly drawn) [Example 141, 1-(2-((1R,3S,4S)-3-(((3-chloro-2-fluorophenyl)(cyano)methyl)carbamoyl)-2-azabicyclo[2.2.1]heptan-2-yl)-2-oxoethyl)-1H-indazole-3-carboxamide]
1 to 10	COC(=O)CC(NC(=O)[C@@H]1[C@H]2CC[C@H](C2)N1C(=O)Cn1nc(C(N)=O)c2ccccc21)c1cccc(Cl)c1F (stereo partly drawn) [Example 142, methyl 3-((1R,3S,4S)-2-(2-(3-carbamoyl-1H-indazol-1-yl)acetyl)-2-azabicyclo[2.2.1]heptane-3-carboxamido)-3-(3-chloro-2-fluorophenyl)propanoate]
1 to 10	NC(=O)c1nn(CC(=O)N2[C@@H]3CC[C@@H](C3)[C@H]2C(=O)NC(CC(=O)O)c2cccc(Cl)c2F)c2ccccc12 (stereo partly drawn) [Example 143, 3-((1R,3S,4S)-2-(2-(3-carbamoyl-1H-indazol-1-yl)acetyl)-2-azabicyclo[2.2.1]heptane-3-carboxamido)-3-(3-chloro-2-fluorophenyl)propanoic acid]
1 to 10	NC(=O)CC(NC(=O)[C@@H]1[C@H]2CC[C@H](C2)N1C(=O)Cn1nc(C(N)=O)c2ccccc21)c1cccc(Cl)c1F (stereo partly drawn) [Example 144, 1-(2-((1R,3S,4S)-3-((3-amino-1-(3-chloro-2-fluorophenyl)-3-oxopropyl)carbamoyl)-2-azabicyclo[2.2.1]heptan-2-yl)-2-oxoethyl)-1H-indazole-3-carboxamide]
1 to 10	NCCC(NC(=O)[C@@H]1[C@H]2CC[C@H](C2)N1C(=O)Cn1nc(C(N)=O)c2ccccc21)c1cccc(Cl)c1F (stereo partly drawn) [Example 145, 1-(2-((1R,3S,4S)-3-((3-amino-1-(3-chloro-2-fluorophenyl)propyl)carbamoyl)-2-azabicyclo[2.2.1]heptan-2-yl)-2-oxoethyl)-1H-indazole-3-carboxamide]
1 to 10	NC(=O)c1nn(CC(=O)N2[C@@H]3CC[C@@H](C3)[C@H]2C(=O)NC(CCO)c2cccc(Cl)c2F)c2ccccc12 (stereo partly drawn) [Example 146, 1-(2-((1R,3S,4S)-3-((1-(3-chloro-2-fluorophenyl)-3-hydroxypropyl)carbamoyl)-2-azabicyclo[2.2.1]heptan-2-yl)-2-oxoethyl)-1H-indazole-3-carboxamide]
> 10	NC(=O)c1nn(CC(=O)N2CCC3CC32C(=O)NCc2cccc(Cl)c2F)c2ccccc12 (stereo not drawn) [Example 147, 1-(2-(1-((3-chloro-2-fluorobenzyl)carbamoyl)-2-azabicyclo[3.1.0]hexan-2-yl)-2-oxoethyl)-1H-indazole-3-carboxamide]
1 to 10	NC(=O)c1nn(CC(=O)N2[C@H]3CC[C@H](CC3)[C@@H]2C(=O)NCc2cccc(Cl)c2F)c2ccccc12 [Example 148, (1S,3R,4S)-2-(2-(3-carbamoyl-1H-indazol-1-yl)acetyl)-N-(3-chloro-2-fluorobenzyl)-2-azabicyclo[2.2.2]octane-3-carboxamide]
> 10	NC(=O)c1nn(CC(=O)N2[C@H]3CC[C@H](CC3)[C@@H]2C(=O)Nc2cccc(Cl)c2F)c2ccccc12 [Example 149, (1S,3R,4S)-2-(2-(3-carbamoyl-1H-indazol-1-yl)acetyl)-N-(3-chloro-2-fluorophenyl)-2-azabicyclo[2.2,2]octane-3-carboxamide]
> 10	NC(=O)c1nn(CC(=O)N2CC3CC2(C(=O)Nc2cccc(Cl)c2F)C3)c2ccccc12 [Example 150, 2-(2-(3-carbamoyl-1H-indazol-1-yl)acetyl)-N-(3-chloro-2-fluorophenyl)-2-azabicyclo[2.1.1]hexane-1-carboxamide]
1 to 10	NC(=O)c1nn(CC(=O)N2CC3CC2(C(=O)Nc2cccc(Cl)n2)C3)c2ccccc12 [Example 151, 2-(2-(3-carbamoyl-1H-indazol-1-yl)acetyl)-N-(6-chloropyridin-2-yl)-2-azabicyclo[2.1.1]hexane-1-carboxamide]
> 10	NC(=O)c1nn(CC(=O)N2[C@H]3CC[C@H]([C@H](O)C3)[C@@H]2C(=O)NCc2cccc(Cl)c2F)c2ccccc12 [Example 153, (1S,3R,4S,5R)-2-(2-(3-carbamoyl-1H-indazol-1-yl)acetyl)-N-(3-chloro-2-fluorobenzyl)-5-hydroxy-2-azabicyclo[2.2.2]octane-3-carboxamide]
1 to 10	NC(=O)c1nn(CC(=O)N2C(C(=O)NCc3cccc(Cl)n3)[C@@H]3C[C@@H](O)[C@H]2[C@H]3O)c2ccccc12 (stereo partly drawn) [Example 154, 1-(2-((1S,4S,6R,7S)-3-(((6-chloropyridin-2-yl)methyl)carbamoyl)-6,7-dihydroxy-2-azabicyclo[2.2.1]heptan-2-yl)-2-oxoethyl)-1H-indazole-3-carboxamide]
1 to 10	NC(=O)c1nn(CC(=O)N2[C@H]3CC[C@H](CC3)[C@@H]2C(=O)Nc2cccc(Cl)n2)c2ccccc12 [Example 155, (1S,3R,4S)-2-(2-(3-carbamoyl-1H-indazol-1-yl)acetyl)-N-(6-chloropyridin-2-yl)-2-azabicyclo[2.2.2]octane-3-carboxamide]
0.1 to 1	NC(=O)c1nn(CC(=O)N2[C@H](C(=O)Nc3cccc(Cl)c3F)C[C@@H]3CCC[C@@H]32)c2ccccc12 [Example 158, 1-(2-((2S,3aS,6aS)-2-((3-chloro-2-fluorophenyl)carbamoyl)hexahydrocyclopenta[b]pyrrol-1(2H)-yl)-2-oxoethyl)-1H-indazole-3-carboxamide]
1 to 10	NC(=O)c1nn(CC(=O)N2[C@H](C(=O)NCc3cccc(Cl)n3)C[C@@H]3CCC[C@@H]32)c2ccccc12 [Example 160, 1-(2-((2S,3aS,6aS)-2-(((6-chloropyridin-2-yl)methyl)carbamoyl)hexahydrocyclopenta[b]pyrrol-1(2H)-yl)-2-oxoethyl)-1H-indazole-3-carboxamide]
1 to 10	NC(=O)c1nn(CC(=O)N2[C@H](C(=O)Nc3cncc(Cl)c3)C[C@@H]3CCC[C@@H]32)c2ccccc12 [Example 161, 1-(2-((2S,3aS,6aS)-2-((5-chloropyridin-3-yl)carbamoyl)hexahydrocyclopenta[b]pyrrol-1(2H)-yl)-2-oxoethyl)-1H-indazole-3-carboxamide]
0.1 to 1	NC(=O)c1nn(CC(=O)N2[C@H](C(=O)Nc3cccc(Cl)n3)C[C@@H]3CCC[C@@H]32)c2ccc(C3CC3)cc12 [Example 162, 1-(2-((2S,3aS,6aS)-2-((6-chloropyridin-2-yl)carbamoyl)hexahydrocyclopenta[b]pyrrol-1(2H)-yl)-2-oxoethyl)-5-cyclopropyl-1H-indazole-3-carboxamide]
> 10	NC(=O)c1nn(CC(=O)N2[C@H](C(=O)Nc3ccnc(Cl)c3)C[C@@H]3CCC[C@@H]32)c2ccccc12 [Example 163, 1-(2-((2S,3aS,6aS)-2-((2-chloropyridin-4-yl)carbamoyl)hexahydrocyclopenta[b]pyrrol-1(2H)-yl)-2-oxoethyl)-1H-indazole-3-carboxamide]
0.1 to 1	NC(=O)c1nn(CC(=O)N2[C@H](C(=O)Nc3cccc(Br)n3)C[C@@H]3CCC[C@@H]32)c2ccccc12 [Example 164, 1-(2-((2S,3aS,6aS)-2-((6-bromopyridin-2-yl)carbamoyl)hexahydrocyclopenta[b]pyrrol-1(2H)-yl)-2-oxoethyl)-1H-indazole-3-carboxamide]
0.1 to 1	Cc1ccc2c(c1)c(C(N)=O)nn2CC(=O)N1[C@H](C(=O)NCc2cccc(Cl)c2F)C[C@@H]2CCC[C@@H]21 [Example 165, 1-(2-((2S,3aS,6aS)-2-((3-chloro-2-fluorobenzyl)carbamoyl)hexahydrocyclopenta[b]pyrrol-1(2H)-yl)-2-oxoethyl)-5-methyl-1H-indazole-3-carboxamide]
0.1 to 1	NC(=O)c1nn(CC(=O)N2[C@H](C(=O)NCc3cccc(Cl)c3F)C[C@@H]3CCC[C@@H]32)c2ccc(F)cc12 [Example 166, 1-(2-((2S,3aS,6aS)-2-((3-chloro-2-fluorobenzyl)carbamoyl)hexahydrocyclopenta[b]pyrrol-1(2H)-yl)-2-oxoethyl)-5-fluoro-1H-indazole-3-carboxamide]
